Test results published in patent US20230181581A1, “CIRCULATING B CELL SUBPOPULATIONS IN INDOLENT B CELL LYMPHOMA” (Alexion Pharmaceuticals, Inc., priority 2020, published 2023).
Where “and” joins values, the source holds several entries; their conditions need not be identical. Equal values may be shown once. Entries after “also recorded” stand apart in the source; their conditions may differ.

How the values were obtained:
Type in all cases: in vivo, human
[1] = system: patients with indolent B cell lymphoma (iNHL); experiment: Phase IIa study: patient disposition (discontinuation, treatment duration) on single agent cerdulatinib; conditions: r/r iNHL, 30 mg BID
Protocol: (§1) This example describes a phase IIa study designed to determine the safety, efficacy, pharmacokinetics, and pharmacodynamics of cerdulatinib at the selected phase II dose of 30 mg BID, dosed in 28 day cycles, in patients with r/r B or T cell malignancies.
Up to 50 patients were enrolled in 5 cohorts; aggressive lymphoma, iNHL, CLL/SLL, PTCL (all receiving single agent cerdulatinib), and iNHL with cerdulatinib in combination with anti-CD20 therapy. Patients remained on drug until discontinuation due to progressive disease (PD), adverse event (AE), withdrawal of consent (WC), or at the discretion of the treating physician. […]

[2] = system: patients with indolent B cell lymphoma (iNHL); experiment: Phase IIa study: clinical response (best response) to single agent cerdulatinib in r/r iNHL patients grouped by baseline B cell subsets; conditions: 30 mg BID
Protocol: as §1
Up to 50 patients were enrolled in 5 cohorts; aggressive lymphoma, iNHL, CLL/SLL, PTCL (all receiving single agent cerdulatinib), and iNHL with cerdulatinib in combination with anti-CD20 therapy. Patients remained on drug until discontinuation due to progressive disease (PD), adverse event (AE), withdrawal of consent (WC), or at the discretion of the treating physician.
(§2) Forty patients with iNHL were enrolled in a cohort receiving single agent cerdulatinib. From this cohort, 30 ml of whole blood was collected from each patient at pre-dose at baseline (C1), cycle 2 day 1 (C2), cycle 3 day 1 (C3), and cycle 6 day 1 (C6) in 10 ml mononuclear cell protection tubes (CPT tubes, BD Bioscience, San Jose, CA) and immediately centrifuged to separate mononuclear cells from plasma and red blood cells at each clinical site. At each time point, tubes were shipped for same day delivery to Caprion Biosciences, Montreal Canada, for preparation and live cell freezing of peripheral blood mononuclear cells (PBMC) by ficoll gradient centrifugation using standard procedures. Banked PBMC’s were stored at -80° C. until 5-8 patient samples through cycle 6 were obtained to enable batched flow cytometry analysis of B cell subsets for each patient over time.
A PCA analysis of the data was performed to identify subgroups of patients characterized by a common B cell phenotype. Subsequent analysis of the results of the PCA by hierarchical clustering was performed.

[3] = system: circulating B cell subsets; experiment: B cell subpopulation analysis of patient PBMC by flow cytometry over time on cerdulatinib
Protocol: as §2
PBMC’s were thawed and rested overnight in RPMI containing 10% fetal bovine serum. Cells were then stained with a cocktail containing Aqua live/dead cell stain (Life Technologies, Carlsbad, CA), and the following antibodies all obtained from BD Biosciences; CD19 PE-Cy7, CD20 BUV395, HLA-DR APC-Cy7, CD27 BV786, IgD PE, CD10 BV650, CD38 BV711, CD138 BV421, IgG BV605, and IgM APC. Cells were stained for 1 hour at room temperature, washed in phosphate buffered saline containing 0.5% bovine serum albumin, and subjected to flow cytometry using the BD Cantos. A maximum number of events was collected, the median number of total B cells collected was 18,789. The B cell subset gating strategy is described in FIG. 1.
Live B cells were then gated based on aqua viability stain and CD19. IgD and CD27 delineated double negative (DN), naïve, switched memory (SM), and non-switched memory (NSM). Within the naive cell area transitional B cells were identified based on CD10 expression. Within the SM area IgG and IgM switched B cells were identified. Plasma cells were identified based on high CD27 expression and CD138. Percent lymphocytes of total live PBMC’s were also calculated. All gating and calculation of B cell subset frequencies either from the total B cell gate or the immediate parent gate of a B cell subset were calculated using Flow Jo software (Tree Star, Inc., Ashland, OR), and analyzed.

[4] = iNHL patients, baseline (C1) vs cycles 2, 3, 6, FIG. 5A

CCS(=O)(=O)N1CCN(c2ccc(Nc3ncc(C(N)=O)c(NC4CC4)n3)cc2)CC1 [cerdulatinib, 4-(cyclopropylamino)-2-((4-(4-(ethylsulfonyl)piperazin-1-yl)phenyl)amino)pyrimidine-5-carboxamide]
Discontinuation due to AE (adverse event), number of patients ([1]; G1 (N=9)): 4.00 | Discontinuation due to AE (adverse event), percent of patients ([1]; G1 (N=9)): 44.4% | Discontinuation due to PD (progressive disease), number of patients ([1]; G1 (N=9)): 1.00 | Discontinuation due to PD (progressive disease), percent of patients ([1]; G1 (N=9)): 11.1% | Discontinuation due to AE (adverse event), number of patients ([1]; G2 (N=16)): 1.00 | Discontinuation due to AE (adverse event), percent of patients ([1]; G2 (N=16)): 6.3% | Discontinuation due to PD (progressive disease), number of patients ([1]; G2 (N=16)): 6.00 | Discontinuation due to PD (progressive disease), percent of patients ([1]; G2 (N=16)): 37.5% | Discontinuation due to AE (adverse event), number of patients ([1]; G2 + G3 (N=29)): 3.00 | Discontinuation due to AE (adverse event), percent of patients ([1]; G2 + G3 (N=29)): 10.3% | Discontinuation due to PD (progressive disease), number of patients ([1]; G2 + G3 (N=29)): 11.0 | Discontinuation due to PD (progressive disease), percent of patients ([1]; G2 + G3 (N=29)): 37.9% | Discontinuation due to AE (adverse event), number of patients ([1]; G3 (N=13)): 2.00 | Discontinuation due to AE (adverse event), percent of patients ([1]; G3 (N=13)): 15.4% | Discontinuation due to PD (progressive disease), number of patients ([1]; G3 (N=13)): 5.00 | Discontinuation due to PD (progressive disease), percent of patients ([1]; G3 (N=13)): 38.5% | Discontinuation due to AE (adverse event), number of patients ([1]; Total (N=38)): 7.00 | Discontinuation due to AE (adverse event), percent of patients ([1]; Total (N=38)): 18.4% | Discontinuation due to PD (progressive disease), number of patients ([1]; Total (N=38)): 12.0 | Discontinuation due to PD (progressive disease), percent of patients ([1]; Total (N=38)): 31.6% | Best Response CR, number of patients ([2]; G1 (N=9)): 1.00 | Best Response CR, percent of patients ([2]; G1 (N=9)): 11.1% | Best Response PD, number of patients ([2]; G1 (N=9)): 1.00 | Best Response PD, percent of patients ([2]; G1 (N=9)): 11.1% | Best Response PR, number of patients ([2]; G1 (N=9)): 1.00 | Best Response PR, percent of patients ([2]; G1 (N=9)): 11.1% | Best Response SD, number of patients ([2]; G1 (N=9)): 2.00 | Best Response SD, percent of patients ([2]; G1 (N=9)): 22.2% | ORR (overall response rate), percent of patients ([2]; G1 (N=9)): 22% and 22.2% | ORR + clinical benefit, number of patients ([2]; G1 (N=9)): 4.00 | ORR + clinical benefit, percent of patients ([2]; G1 (N=9)): 44.4% | ORR, number of patients ([2]; G1 (N=9)): 2.00 | Best Response CR, number of patients ([2]; G2 (N=16)): 5.00 | Best Response CR, percent of patients ([2]; G2 (N=16)): 31.3% | Best Response PD, number of patients ([2]; G2 (N=16)): 0 (0%) | Best Response PD, percent of patients ([2]; G2 (N=16)): 0 (0%) | Best Response PR, number of patients ([2]; G2 (N=16)): 8.00 | Best Response PR, percent of patients ([2]; G2 (N=16)): 50.0% | Best Response SD, number of patients ([2]; G2 (N=16)): 1.00 | Best Response SD, percent of patients ([2]; G2 (N=16)): 6.3% | ORR (overall response rate), percent of patients ([2]; G2 (N=16)): 81% and 81.3% | ORR + clinical benefit, number of patients ([2]; G2 (N=16)): 14.0 | ORR + clinical benefit, percent of patients ([2]; G2 (N=16)): 87.5% | ORR, number of patients ([2]; G2 (N=16)): 13.0 | Best Response CR, number of patients ([2]; G2 + G3 (N=29)): 6.00 | Best Response CR, percent of patients ([2]; G2 + G3 (N=29)): 20.7% | Best Response PD, number of patients ([2]; G2 + G3 (N=29)): 3.00 | Best Response PD, percent of patients ([2]; G2 + G3 (N=29)): 10.3% | Best Response PR, number of patients ([2]; G2 + G3 (N=29)): 14.0 | Best Response PR, percent of patients ([2]; G2 + G3 (N=29)): 48.3% | Best Response SD, number of patients ([2]; G2 + G3 (N=29)): 4.00 | Best Response SD, percent of patients ([2]; G2 + G3 (N=29)): 13.8% | ORR (overall response rate), percent of patients ([2]; G2 + G3 (N=29)): 69.0% | ORR + clinical benefit, number of patients ([2]; G2 + G3 (N=29)): 24.0 | ORR + clinical benefit, percent of patients ([2]; G2 + G3 (N=29)): 82.8% | ORR, number of patients ([2]; G2 + G3 (N=29)): 20.0 | Best Response CR, number of patients ([2]; G3 (N=13)): 1.00 | Best Response CR, percent of patients ([2]; G3 (N=13)): 7.7% | Best Response PD, number of patients ([2]; G3 (N=13)): 3.00 | Best Response PD, percent of patients ([2]; G3 (N=13)): 23.1% | Best Response PR, number of patients ([2]; G3 (N=13)): 6.00 | Best Response PR, percent of patients ([2]; G3 (N=13)): 46.2% | Best Response SD, number of patients ([2]; G3 (N=13)): 3.00 | Best Response SD, percent of patients ([2]; G3 (N=13)): 23.1% | ORR (overall response rate), percent of patients ([2]; G3 (N=13)): 53.8% | ORR + clinical benefit, number of patients ([2]; G3 (N=13)): 10.0 | ORR + clinical benefit, percent of patients ([2]; G3 (N=13)): 76.9% | ORR, number of patients ([2]; G3 (N=13)): 7.00 | Best Response CR, number of patients ([2]; Total (N=38)): 7.00 | Best Response CR, percent of patients ([2]; Total (N=38)): 18.4% | Best Response PD, number of patients ([2]; Total (N=38)): 4.00 | Best Response PD, percent of patients ([2]; Total (N=38)): 10.5% | Best Response PR, number of patients ([2]; Total (N=38)): 15.0 | Best Response PR, percent of patients ([2]; Total (N=38)): 39.5% | Best Response SD, number of patients ([2]; Total (N=38)): 6.00 | Best Response SD, percent of patients ([2]; Total (N=38)): 15.8% | ORR (overall response rate), percent of patients ([2]; Total (N=38)): 57.9% | ORR + clinical benefit, number of patients ([2]; Total (N=38)): 28.0 | ORR + clinical benefit, percent of patients ([2]; Total (N=38)): 73.7% | ORR, number of patients ([2]; Total (N=38)): 22.0 | CD10 and CD38 expression on transitional B cells over time ([3]; iNHL patients on cerdulatinib, FIG. 5B representative Group 1 patient): loss of CD10 and CD38 expression | Frequency of B cells of lymphocytes over time [3, 4]: did not change | Frequency of CD10 negative (non-transitional) naïve B cells over time [3, 4]: rise and increase | Frequency of total naïve B cells over time [3, 4]: did not change | Frequency of transitional (CD10+) B cells of total B cells over time [3, 4]: decreased; also recorded: induces loss of transitional B cell phenotype | Frequencies of switched memory or double negative B cells over time ([3]; iNHL patients, baseline (C1) vs cycles 2, 3, 6, FIG. 8): no meaningful impact; also recorded: does not impact | Impact on the measured B cell populations ([3]; iNHL patients, over a period of 6 months on therapy): very little impact
